Holding throughout (experiment): MIC, standard broth micro-dilution assay
Holding throughout (assay type): cell-based
On the technique in general: Dilution methods test growth across graded concentrations, often in twofold steps.

Assay [1] concerns Entercoccus gallinarum 245. The protocol:
(§1) The formula I compounds have in vitro and in vivo activity against Gram-positive pathogenic bacteria. The MIC's were determined using a standard broth micro-dilution assay.

A further assay relates to Entercoccus faecalis 276. The protocol:
as §1

The subject of assay [2] is Entercoccus faecalis 2041. Here is the method:
as §1

Structures are written as SMILES. Values after ≈ are worked out from the molar mass of the structure shown.

Take `CCCOC(c1ccccc1)c1ccc(CNC2(C)CC(OC3C(Oc4c5cc6cc4Oc4ccc(cc4Cl)C(OC4CC(C)(N)C(O)C(C)O4)C4NC(=O)C(NC(=O)C6NC(=O)C(CC(N)=O)NC(=O)C(NC(=O)C(CC(C)C)NC)C(O)c6ccc(c(Cl)c6)O5)c5ccc(O)c(c5)-c5c(O)cc(O)cc5C(C(=O)O)NC4=O)OC(CO)C(O)C3O)OC(C)C2O)cc1` (stereo not drawn) [Compound 128, 4-[alpha-propoxybenzyl]benzyl]: the MIC (commonly the least concentration at which growth counts as inhibited) in assay [1] was 2 µg/mL (≈ 1.09 µM); against Entercoccus faecalis 276 it was 1 µg/mL (≈ 0.546 µM); in assay [2] it was 0.5 µg/mL (≈ 0.273 µM).
In the same order, the values of `CNC(CC(C)C)C(=O)NC1C(=O)NC(CC(N)=O)C(=O)NC2C(=O)NC3C(=O)NC(C(=O)NC(C(=O)O)c4cc(O)cc(O)c4-c4cc3ccc4O)C(OC3CC(C)(N)C(O)C(C)O3)c3ccc(c(Cl)c3)Oc3cc2cc(c3OC2OC(CO)C(O)C(O)C2OC2CC(C)(NCc3cccc(Oc4ccc(C(F)(F)F)cc4)c3)C(O)C(C)O2)Oc2ccc(cc2Cl)C1O` (stereo not drawn) [Compound 132, 3-[4-trifluoromethylphenoxy]benzyl] are 2 µg/mL (≈ 1.09 µM), 1 µg/mL (≈ 0.543 µM) and 1 µg/mL (≈ 0.543 µM).
The like results for `CNC(CC(C)C)C(=O)NC1C(=O)NC(CC(N)=O)C(=O)NC2C(=O)NC3C(=O)NC(C(=O)NC(C(=O)O)c4cc(O)cc(O)c4-c4cc3ccc4O)C(OC3CC(C)(N)C(O)C(C)O3)c3ccc(c(Cl)c3)Oc3cc2cc(c3OC2OC(CO)C(O)C(O)C2OC2CC(C)(NCc3ccc(O)cc3)C(O)C(C)O2)Oc2ccc(cc2Cl)C1O` (stereo not drawn) [Compound 136, 4-hydroxybenzyl] were, in that order, 4 µg/mL (≈ 2.35 µM), at most 0.06 µg/mL and at most 0.06 µg/mL.
Consider `CNC(CC(C)C)C(=O)NC1C(=O)NC(CC(N)=O)C(=O)NC2C(=O)NC3C(=O)NC(C(=O)NC(C(=O)O)c4cc(O)cc(O)c4-c4cc3ccc4O)C(OC3CC(C)(N)C(O)C(C)O3)c3ccc(c(Cl)c3)Oc3cc2cc(c3OC2OC(CO)C(O)C(O)C2OC2CC(C)(NCc3ccc(-c4ccccn4)cc3)C(O)C(C)O2)Oc2ccc(cc2Cl)C1O` (stereo not drawn) [Compound 137, 4-[2-pyridyl]benzyl], for which the results for the minimum inhibitory concentration (MIC) (in assay [1]; against Entercoccus faecalis 276; in assay [2]) were 8 µg/mL (≈ 4.55 µM), at most 0.06 µg/mL and at most 0.06 µg/mL, respectively.
Regarding `CNC(CC(C)C)C(=O)NC1C(=O)NC(CC(N)=O)C(=O)NC2C(=O)NC3C(=O)NC(C(=O)NC(C(=O)O)c4cc(O)cc(O)c4-c4cc3ccc4O)C(OC3CC(C)(N)C(O)C(C)O3)c3ccc(c(Cl)c3)Oc3cc2cc(c3OC2OC(CO)C(O)C(O)C2OC2CC(C)(NCC3CCC(c4ccccc4)C3)C(O)C(C)O2)Oc2ccc(cc2Cl)C1O` (stereo not drawn) [Compound 140, 3-phenylcyclopentylmethyl], the MIC is 8 µg/mL (≈ 4.57 µM) in assay [1], 0.5 µg/mL (≈ 0.286 µM) in the assay on Entercoccus faecalis 276 and at most 0.06 µg/mL in assay [2].
As to `CNC(CC(C)C)C(=O)NC1C(=O)NC(CC(N)=O)C(=O)NC2C(=O)NC3C(=O)NC(C(=O)NC(C(=O)O)c4cc(O)cc(O)c4-c4cc3ccc4O)C(OC3CC(C)(N)C(O)C(C)O3)c3ccc(c(Cl)c3)Oc3cc2cc(c3OC2OC(CO)C(O)C(O)C2OC2CC(C)(NCC34CC5CC(CC(C5)C3)C4)C(O)C(C)O2)Oc2ccc(cc2Cl)C1O` (stereo not drawn) [Compound 141, 1-adamantylmethyl], the figures for the MIC (in assay [1]; against Entercoccus faecalis 276; in assay [2]) were 4 µg/mL (≈ 2.3 µM), 0.5 µg/mL (≈ 0.287 µM) and at most 0.06 µg/mL, respectively.
Regarding `CNC(CC(C)C)C(=O)NC1C(=O)NC(CC(N)=O)C(=O)NC2C(=O)NC3C(=O)NC(C(=O)NC(C(=O)O)c4cc(O)cc(O)c4-c4cc3ccc4O)C(OC3CC(C)(N)C(O)C(C)O3)c3ccc(c(Cl)c3)Oc3cc2cc(c3OC2OC(CO)C(O)C(O)C2OC2CC(C)(NCc3ccc(OC)c(OCC4CCCCC4)c3)C(O)C(C)O2)Oc2ccc(cc2Cl)C1O` (stereo not drawn) [Compound 142, 3-[cyclohexylmethoxy]-4-methoxybenzyl], the MIC in assay [1] is 1 µg/mL (≈ 0.548 µM); in the assay with Entercoccus faecalis 276, 1 µg/mL (≈ 0.548 µM); in assay [2] it was at most 0.06 µg/mL.
Take `CNC(CC(C)C)C(=O)NC1C(=O)NC(CC(N)=O)C(=O)NC2C(=O)NC3C(=O)NC(C(=O)NC(C(=O)O)c4cc(O)cc(O)c4-c4cc3ccc4O)C(OC3CC(C)(N)C(O)C(C)O3)c3ccc(c(Cl)c3)Oc3cc2cc(c3OC2OC(CO)C(O)C(O)C2OC2CC(C)(NCc3ccc(N4CCN(C)CC4)cc3)C(O)C(C)O2)Oc2ccc(cc2Cl)C1O` (stereo not drawn) [Compound 146, 4-[4-methylpiperazino]benzyl]: the MIC was found to be 0.5 µg/mL (≈ 0.281 µM) in assay [1], 1 µg/mL (≈ 0.562 µM) with Entercoccus faecalis 276 and 0.5 µg/mL (≈ 0.281 µM) in assay [2].
For `CNC(CC(C)C)C(=O)NC1C(=O)NC(CC(N)=O)C(=O)NC2C(=O)NC3C(=O)NC(C(=O)NC(C(=O)O)c4cc(O)cc(O)c4-c4cc3ccc4O)C(OC3CC(C)(N)C(O)C(C)O3)c3ccc(c(Cl)c3)Oc3cc2cc(c3OC2OC(CO)C(O)C(O)C2OC2CC(C)(NCc3ccc(S(=O)(=O)c4ccc(Cl)cc4)cc3)C(O)C(C)O2)Oc2ccc(cc2Cl)C1O` (stereo not drawn) [Compound 148, 4-[4-chlorophenylsulfonyl]benzyl], the MIC in assay [1] is 2 µg/mL (≈ 1.08 µM); against Entercoccus faecalis 276 it was at most 0.06 µg/mL; in assay [2] it was at most 0.06 µg/mL.
Take `CNC(CC(C)C)C(=O)NC1C(=O)NC(CC(N)=O)C(=O)NC2C(=O)NC3C(=O)NC(C(=O)NC(C(=O)O)c4cc(O)cc(O)c4-c4cc3ccc4O)C(OC3CC(C)(N)C(O)C(C)O3)c3ccc(c(Cl)c3)Oc3cc2cc(c3OC2OC(CO)C(O)C(O)C2OC2CC(C)(NCc3ccc(OS(C)(=O)=O)cc3)C(O)C(C)O2)Oc2ccc(cc2Cl)C1O` (stereo not drawn) [Compound 149, 4-methylsulfonyloxybenzyl]: the results for the MIC (in assay [1]; against Entercoccus faecalis 276; in assay [2]) were 16 µg/mL (≈ 9.01 µM), at most 0.06 µg/mL and at most 0.06 µg/mL, respectively.
Turning to `CNC(CC(C)C)C(=O)NC1C(=O)NC(CC(N)=O)C(=O)NC2C(=O)NC3C(=O)NC(C(=O)NC(C(=O)O)c4cc(O)cc(O)c4-c4cc3ccc4O)C(OC3CC(C)(N)C(O)C(C)O3)c3ccc(c(Cl)c3)Oc3cc2cc(c3OC2OC(CO)C(O)C(O)C2OC2CC(C)(NCc3ccc(OC(=O)c4ccccc4)cc3)C(O)C(C)O2)Oc2ccc(cc2Cl)C1O` (stereo not drawn) [Compound 150, 4-benzoyloxybenzyl], the figures for the MIC (in assay [1]; against Entercoccus faecalis 276; in assay [2]) were 2 µg/mL (≈ 1.11 µM), 1 µg/mL (≈ 0.555 µM) and at most 0.06 µg/mL, respectively.
Regarding `CNC(CC(C)C)C(=O)NC1C(=O)NC(CC(N)=O)C(=O)NC2C(=O)NC3C(=O)NC(C(=O)NC(C(=O)O)c4cc(O)cc(O)c4-c4cc3ccc4O)C(OC3CC(C)(N)C(O)C(C)O3)c3ccc(c(Cl)c3)Oc3cc2cc(c3OC2OC(CO)C(O)C(O)C2OC2CC(C)(NCc3cncc(-c4ccccc4)c3)C(O)C(C)O2)Oc2ccc(cc2Cl)C1O` (stereo not drawn) [Compound 151, 5-phenyl-3-pyridinylmethyl], the values for the MIC (in assay [1]; against Entercoccus faecalis 276; in assay [2]) were 4 µg/mL (≈ 2.27 µM), at most 0.06 µg/mL and at most 0.06 µg/mL, respectively.
Regarding `CNC(CC(C)C)C(=O)NC1C(=O)NC(CC(N)=O)C(=O)NC2C(=O)NC3C(=O)NC(C(=O)NC(C(=O)O)c4cc(O)cc(O)c4-c4cc3ccc4O)C(OC3CC(C)(N)C(O)C(C)O3)c3ccc(c(Cl)c3)Oc3cc2cc(c3OC2OC(CO)C(O)C(O)C2OC2CC(C)(NCc3cccc(OC4CCCCC4)c3)C(O)C(C)O2)Oc2ccc(cc2Cl)C1O` (stereo not drawn) [Compound 153], the results for the MIC (in assay [1]; against Entercoccus faecalis 276; in assay [2]) were 1 µg/mL (≈ 0.562 µM), 0.5 µg/mL (≈ 0.281 µM) and at most 0.06 µg/mL, respectively.
In the same order, the values of `CNC(CC(C)C)C(=O)NC1C(=O)NC(CC(N)=O)C(=O)NC2C(=O)NC3C(=O)NC(C(=O)NC(C(=O)O)c4cc(O)cc(O)c4-c4cc3ccc4O)C(OC3CC(C)(N)C(O)C(C)O3)c3ccc(c(Cl)c3)Oc3cc2cc(c3OC2OC(CO)C(O)C(O)C2OC2CC(C)(NCc3c4c(cc5ccccc35)CCCC4)C(O)C(C)O2)Oc2ccc(cc2Cl)C1O` (stereo not drawn) [Compound 156, 1,2,3,4,-tetrahydro-9-anthranylmethyl] are 2 µg/mL (≈ 1.12 µM), 2 µg/mL (≈ 1.12 µM) and 0.5 µg/mL (≈ 0.28 µM).
Regarding `CNC(CC(C)C)C(=O)NC1C(=O)NC(CC(N)=O)C(=O)NC2C(=O)NC3C(=O)NC(C(=O)NC(C(=O)O)c4cc(O)cc(O)c4-c4cc3ccc4O)C(OC3CC(C)(N)C(O)C(C)O3)c3ccc(c(Cl)c3)Oc3cc2cc(c3OC2OC(CO)C(O)C(O)C2OC2CC(C)(NCc3ccc(OC(=O)C4CCCCC4)cc3)C(O)C(C)O2)Oc2ccc(cc2Cl)C1O` (stereo not drawn) [Compound 157, 4-cyclohexanoyloxybenzyl], the MIC in assay [1] was 1 µg/mL (≈ 0.553 µM); in the assay on Entercoccus faecalis 276, at most 0.06 µg/mL; in assay [2], at most 0.06 µg/mL.
In the case of `CNC(CC(C)C)C(=O)NC1C(=O)NC(CC(N)=O)C(=O)NC2C(=O)NC3C(=O)NC(C(=O)NC(C(=O)O)c4cc(O)cc(O)c4-c4cc3ccc4O)C(OC3CC(C)(N)C(O)C(C)O3)c3ccc(c(Cl)c3)Oc3cc2cc(c3OC2OC(CO)C(O)C(O)C2OC2CC(C)(NCc3ccc(Nc4ccccc4)cc3)C(O)C(C)O2)Oc2ccc(cc2Cl)C1O` (stereo not drawn) [Compound 160, 4-anilinobenzyl], the MIC in assay [1] is 8 µg/mL (≈ 4.51 µM); with Entercoccus faecalis 276 it was 2 µg/mL (≈ 1.13 µM); in assay [2], at most 0.06 µg/mL.
The like results for `CNC(CC(C)C)C(=O)NC1C(=O)NC(CC(N)=O)C(=O)NC2C(=O)NC3C(=O)NC(C(=O)NC(C(=O)O)c4cc(O)cc(O)c4-c4cc3ccc4O)C(OC3CC(C)(N)C(O)C(C)O3)c3ccc(c(Cl)c3)Oc3cc2cc(c3OC2OC(CO)C(O)C(O)C2OC2CC(C)(NCc3cccc(OC(=O)c4ccccc4)c3)C(O)C(C)O2)Oc2ccc(cc2Cl)C1O` (stereo not drawn) [Compound 162, 3-benzoyloxybenzyl] were, in that order, 2 µg/mL (≈ 1.11 µM), at most 0.06 µg/mL and at most 0.06 µg/mL.
The like results for `CNC(CC(C)C)C(=O)NC1C(=O)NC(CC(N)=O)C(=O)NC2C(=O)NC3C(=O)NC(C(=O)NC(C(=O)O)c4cc(O)cc(O)c4-c4cc3ccc4O)C(OC3CC(C)(N)C(O)C(C)O3)c3ccc(c(Cl)c3)Oc3cc2cc(c3OC2OC(CO)C(O)C(O)C2OC2CC(C)(NCC3CCC(C4CCCCC4)CC3)C(O)C(C)O2)Oc2ccc(cc2Cl)C1O` (stereo not drawn) [Compound 164, 4-[cyclohexyl]cyclohexylmethyl] were, in that order, 2 µg/mL (≈ 1.13 µM), 1 µg/mL (≈ 0.565 µM) and 1 µg/mL (≈ 0.565 µM).

Source of the values: patent US5843889A, “Glycopeptide antibiotic derivatives” (Eli Lilly and Company, priority 1997, dated 1998).
